{"source": "patent US4529733A", "about": "“Antihypertensive 3-furoyl-1,4-dihydropyridines” (Merrell Dow Pharmaceuticals Inc., priority 1983, dated 1985)", "key": {"pithed rats": {"tested_on": "pithed rats", "assay": "Anti-hypertensive activity in pithed rats (blood pressure elevated by angiotensin II infusion)", "assay_type": "in vivo, rat", "conditions": "for bradycardia / diastolic blood pressure, elevated by an infusion of angiotensin II: i.v., result in words"}, "[1]": {"target": "T1, K^+ -depolarized taenia preparations from the guinea pig caecum (Cavia porcellus, UniProt O35505)", "T1 construct": "taenia preparations from the guinea pig caecum; from tissue; host or cells: guinea pig caecum, taenia (smooth muscle)", "T1 sequence (O35505 whole entry)": "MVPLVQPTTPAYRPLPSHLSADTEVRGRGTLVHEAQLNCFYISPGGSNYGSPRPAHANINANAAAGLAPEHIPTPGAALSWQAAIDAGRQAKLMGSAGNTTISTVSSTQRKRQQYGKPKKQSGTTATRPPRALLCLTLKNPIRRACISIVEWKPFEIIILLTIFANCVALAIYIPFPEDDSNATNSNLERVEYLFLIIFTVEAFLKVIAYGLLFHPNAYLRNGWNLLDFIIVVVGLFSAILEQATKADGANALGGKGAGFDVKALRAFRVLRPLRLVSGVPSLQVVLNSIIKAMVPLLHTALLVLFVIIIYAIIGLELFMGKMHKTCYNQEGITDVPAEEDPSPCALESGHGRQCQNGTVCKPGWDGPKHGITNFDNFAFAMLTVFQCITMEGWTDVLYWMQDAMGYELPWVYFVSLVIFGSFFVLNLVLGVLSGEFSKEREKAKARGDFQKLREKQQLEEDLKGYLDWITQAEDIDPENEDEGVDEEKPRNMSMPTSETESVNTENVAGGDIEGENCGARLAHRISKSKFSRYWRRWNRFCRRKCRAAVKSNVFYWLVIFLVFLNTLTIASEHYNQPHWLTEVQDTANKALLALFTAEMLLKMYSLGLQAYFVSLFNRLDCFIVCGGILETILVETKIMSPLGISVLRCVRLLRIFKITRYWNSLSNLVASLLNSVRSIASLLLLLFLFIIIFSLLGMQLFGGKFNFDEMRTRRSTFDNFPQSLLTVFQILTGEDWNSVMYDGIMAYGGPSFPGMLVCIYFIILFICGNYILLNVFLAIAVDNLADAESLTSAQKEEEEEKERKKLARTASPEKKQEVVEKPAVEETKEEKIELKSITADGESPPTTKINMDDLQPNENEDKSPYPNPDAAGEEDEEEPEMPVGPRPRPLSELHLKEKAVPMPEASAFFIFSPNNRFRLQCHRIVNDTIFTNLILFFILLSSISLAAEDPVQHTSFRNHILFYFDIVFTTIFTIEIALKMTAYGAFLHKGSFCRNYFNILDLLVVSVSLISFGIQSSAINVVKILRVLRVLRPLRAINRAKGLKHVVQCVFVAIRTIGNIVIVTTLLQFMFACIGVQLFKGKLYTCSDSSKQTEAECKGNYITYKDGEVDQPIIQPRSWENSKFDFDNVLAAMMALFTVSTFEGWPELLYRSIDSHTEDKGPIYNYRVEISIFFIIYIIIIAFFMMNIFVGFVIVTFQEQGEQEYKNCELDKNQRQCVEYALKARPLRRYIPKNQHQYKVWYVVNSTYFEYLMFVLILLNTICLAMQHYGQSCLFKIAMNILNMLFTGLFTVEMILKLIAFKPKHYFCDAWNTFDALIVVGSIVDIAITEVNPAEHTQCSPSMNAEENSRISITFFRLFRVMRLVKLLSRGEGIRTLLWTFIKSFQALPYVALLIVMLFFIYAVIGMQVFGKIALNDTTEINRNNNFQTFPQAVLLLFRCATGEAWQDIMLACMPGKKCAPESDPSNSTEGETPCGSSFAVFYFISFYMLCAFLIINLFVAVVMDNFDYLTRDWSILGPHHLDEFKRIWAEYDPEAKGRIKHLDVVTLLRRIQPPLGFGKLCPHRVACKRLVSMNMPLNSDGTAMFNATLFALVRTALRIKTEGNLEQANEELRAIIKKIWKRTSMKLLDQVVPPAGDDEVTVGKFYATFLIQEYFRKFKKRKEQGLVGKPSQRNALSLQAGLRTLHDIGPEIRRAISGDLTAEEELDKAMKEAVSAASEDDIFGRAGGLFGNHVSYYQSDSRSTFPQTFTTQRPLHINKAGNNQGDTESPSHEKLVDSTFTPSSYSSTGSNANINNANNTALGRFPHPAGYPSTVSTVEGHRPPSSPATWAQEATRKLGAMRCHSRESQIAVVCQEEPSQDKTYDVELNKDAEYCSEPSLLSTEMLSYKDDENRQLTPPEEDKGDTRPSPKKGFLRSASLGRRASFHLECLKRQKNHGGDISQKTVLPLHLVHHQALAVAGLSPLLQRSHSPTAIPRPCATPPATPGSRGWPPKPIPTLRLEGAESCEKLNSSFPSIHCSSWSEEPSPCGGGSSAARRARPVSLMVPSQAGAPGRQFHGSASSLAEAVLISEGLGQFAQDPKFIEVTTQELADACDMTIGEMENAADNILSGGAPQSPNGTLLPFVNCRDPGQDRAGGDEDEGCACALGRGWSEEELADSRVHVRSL", "assay": "Calcium antagonism in K+-depolarized taenia preparations (displacement of Ca++ concentration-response curves)", "assay_type": "cell-based", "conditions": "for Kb: calculated, against Ca++, read-out: pA2 (converted)", "from_the_text": "Pharmacol., 38, 234 (1982). […] Pharmacol., 318, 234 (1982)]."}, "[2]": {"tested_on": "conscious spontaneously hypertensive rats (stroke prone strain)", "assay": "Anti-hypertensive effect in conscious spontaneously hypertensive rats (stroke prone strain)", "assay_type": "in vivo, rat", "description": "In this test, the test compound is injected in an indwelling cannula in the femoral vein and blood pressure is measured by an indwelling catheter in the femoral artery. Heart rate is also measured."}, "[3]": {"tested_on": "K^+ -depolarized taenia preparations from guinea pig caecum", "assay": "Inhibition of 45Ca++ uptake in K+-depolarized taenia preparations", "assay_type": "cell-based", "conditions": "0.1 and 1 μM; 20 minutes incubation", "description": "In this procedure, strips of taenia are incubated in Ca^++ -free buffer (composition, mM: NaCl, 97; KCl, 40; glucose, 5.5, HEPES buffer, 10; pH 7.0) at 35° C. and gassed with oxygen. The preparations thus prepared are then incubated with the test compound for 20 minutes after which ^45 Ca^++ /Ca^++ is added (1 mM for 10 minutes). Extracellular Ca^++ is displaced with lanthanum (50 mM) at 0°-4° C."}, "[4]": {"tested_on": "pentobarbitone-anesthetized rats", "assay": "Anti-hypertensive effect in pentobarbitone-anesthetized rats", "assay_type": "in vivo, rat", "conditions": "for Change in diastolic blood pressure / Change in heart rate: pentobarbitone-anesthetized rats", "description": "In this test, rats, anesthetized with a 45 to 60 mg/kg dose (i.p.) of sodium pentabarbitone, receive the test compound by injection by means of an indwelling cannula in the femoral vein. Diastolic blood pressure is measured by an indwelling catheter in the femoral artery. Heart rate is also measured."}}, "data": [{"compound": "CCOC(=O)C1=C(C)NC(C)=C(C(=O)c2ccco2)C1c1ccccc1[N+](=O)[O-]", "note": "(stereo not drawn) [Compound B, 3-(2-furoyl)-5-ethoxycarbonyl-2,6-dimethyl-4-(2-nitrophenyl)-1,4-dihydropyridine]", "values": [{"measurement": "Change in diastolic blood pressure", "setting": "pithed rats; 10 nmol/kg i.v.", "value": "80.6 ± 2.8", "unit": "% control"}, {"measurement": "Change in heart rate", "setting": "pithed rats; 10 nmol/kg i.v.", "value": "94.1 ± 0.5", "unit": "% control"}, {"measurement": "Change in diastolic blood pressure", "setting": "pithed rats; 30 nmol/kg i.v.", "value": "67.9 ± 3.0", "unit": "% control"}, {"measurement": "Change in heart rate", "setting": "pithed rats; 30 nmol/kg i.v.", "value": "90.4 ± 1.3", "unit": "% control"}, {"measurement": "Change in diastolic blood pressure", "setting": "pithed rats; 100 nmol/kg i.v.", "value": "47.7 ± 2.4", "unit": "% control"}, {"measurement": "Change in heart rate", "setting": "pithed rats; 100 nmol/kg i.v.", "value": "85.7 ± 1.5", "unit": "% control"}, {"measurement": "Change in diastolic blood pressure", "setting": "pithed rats; 300 nmol/kg i.v.", "value": "45.6 ± 3.9", "unit": "% control"}, {"measurement": "Change in heart rate", "setting": "pithed rats; 300 nmol/kg i.v.", "value": "84.1 ± 3.4", "unit": "% control"}, {"measurement": "Change in diastolic blood pressure", "setting": "pithed rats; 1000 nmol/kg i.v.", "value": "39.1 ± 2.1", "unit": "% control"}, {"measurement": "Change in heart rate", "setting": "pithed rats; 1000 nmol/kg i.v.", "value": "76.6 ± 3.4", "unit": "% control"}, {"measurement": "Change in diastolic blood pressure", "setting": "pithed rats; 3000 nmol/kg i.v.", "value": "37.1 ± 0.8", "unit": "% control"}, {"measurement": "Change in heart rate", "setting": "pithed rats; 3000 nmol/kg i.v.", "value": "72.2 ± 3.4", "unit": "% control"}, {"measurement": "bradycardia", "setting": "pithed rats", "value": "dose-dependent bradycardia"}, {"measurement": "diastolic blood pressure, elevated by an infusion of angiotensin II", "setting": "pithed rats", "value": "significantly reduced"}, {"measurement": "displacement of concentration-response curves to Ca++", "setting": "[1]", "value": "caused a concentration-dependent displacement to the right"}, {"measurement": "Kb", "setting": "[1]", "value": 4.57, "unit": "nM"}]}, {"compound": "COC(=O)C1=C(C)NC(C)=C(C(=O)c2ccco2)C1c1ccccc1[N+](=O)[O-]", "note": "(stereo not drawn) [Compound A, 3-(2-furoyl)-5-methoxycarbonyl-2,6-dimethyl-4-(2-nitrophenyl)-1,4-dihydropyridine]", "values": [{"measurement": "Fall in mean blood pressure", "setting": "[2]; 100 nmol/kg i.v.", "value": "4.5 ± 1.5", "unit": "mm Hg"}, {"measurement": "Increase in heart rate", "setting": "[2]; 100 nmol/kg i.v.", "value": "20.0 ± 3.2", "unit": "beats/min"}, {"measurement": "Fall in mean blood pressure", "setting": "[2]; 300 nmol/kg i.v.", "value": "20.5 ± 1.5", "unit": "mm Hg"}, {"measurement": "Increase in heart rate", "setting": "[2]; 300 nmol/kg i.v.", "value": "70.0 ± 4.2", "unit": "beats/min"}, {"measurement": "Fall in mean blood pressure", "setting": "[2]; 1000 nmol/kg i.v.", "value": "42.5 ± 1.8", "unit": "mm Hg"}, {"measurement": "Increase in heart rate", "setting": "[2]; 1000 nmol/kg i.v.", "value": "118.0 ± 16.3", "unit": "beats/min"}, {"measurement": "Fall in mean blood pressure", "setting": "[2]; 3000 nmol/kg i.v.", "value": "56.6 ± 1.4", "unit": "mm Hg"}, {"measurement": "Increase in heart rate", "setting": "[2]; 3000 nmol/kg i.v.", "value": "136.3 ± 11.1", "unit": "beats/min"}, {"measurement": "blood pressure", "setting": "[2]; i.v., result in words", "value": "significantly reduced blood pressure in a dose-dependent manner"}, {"measurement": "reflex tachycardia", "setting": "[2]; i.v., result in words", "value": "produced reflex tachycardia"}, {"measurement": "Change in diastolic blood pressure", "setting": "pithed rats; 3 nmol/kg i.v.", "value": "82.2 ± 5.3", "unit": "% control"}, {"measurement": "Change in heart rate", "setting": "pithed rats; 3 nmol/kg i.v.", "value": "98.1 ± 0.9", "unit": "% control"}, {"measurement": "Change in diastolic blood pressure", "setting": "pithed rats; 10 nmol/kg i.v.", "value": "72.3 ± 4.9", "unit": "% control"}, {"measurement": "Change in heart rate", "setting": "pithed rats; 10 nmol/kg i.v.", "value": "93.7 ± 1.7", "unit": "% control"}, {"measurement": "Change in diastolic blood pressure", "setting": "pithed rats; 30 nmol/kg i.v.", "value": "62.4 ± 3.5", "unit": "% control"}, {"measurement": "Change in heart rate", "setting": "pithed rats; 30 nmol/kg i.v.", "value": "90.9 ± 2.5", "unit": "% control"}, {"measurement": "Change in diastolic blood pressure", "setting": "pithed rats; 100 nmol/kg i.v.", "value": "52.0 ± 3.8", "unit": "% control"}, {"measurement": "Change in heart rate", "setting": "pithed rats; 100 nmol/kg i.v.", "value": "81.1 ± 3.3", "unit": "% control"}, {"measurement": "Change in diastolic blood pressure", "setting": "pithed rats; 300 nmol/kg i.v.", "value": "45.0 ± 1.6", "unit": "% control"}, {"measurement": "Change in heart rate", "setting": "pithed rats; 300 nmol/kg i.v.", "value": "74.2 ± 3.4", "unit": "% control"}, {"measurement": "Change in diastolic blood pressure", "setting": "pithed rats; 1000 nmol/kg i.v.", "value": "36.4 ± 1.8", "unit": "% control"}, {"measurement": "Change in heart rate", "setting": "pithed rats; 1000 nmol/kg i.v.", "value": "67.9 ± 3.4", "unit": "% control"}, {"measurement": "Change in diastolic blood pressure", "setting": "pithed rats; 3000 nmol/kg i.v.", "value": "32.9 ± 1.8", "unit": "% control"}, {"measurement": "Change in heart rate", "setting": "pithed rats; 3000 nmol/kg i.v.", "value": "64.3 ± 3.4", "unit": "% control"}, {"measurement": "bradycardia", "setting": "pithed rats", "value": "dose-dependent bradycardia"}, {"measurement": "diastolic blood pressure, elevated by an infusion of angiotensin II", "setting": "pithed rats", "value": "significantly reduced"}, {"measurement": "displacement of concentration-response curves to Ca++", "setting": "[1]", "value": "caused a concentration-dependent displacement to the right"}, {"measurement": "Kb", "setting": "[1]", "value": 1.78, "unit": "nM"}, {"measurement": "uptake of 45Ca++ into the tissue", "setting": "[3]", "value": "reduced uptake"}, {"measurement": "blood pressure in anesthetized rats", "setting": "[4]; anesthetized rats, i.v., result in words", "value": "reduced blood pressure in anesthetized rats in a dose-dependent manner"}, {"measurement": "Change in diastolic blood pressure", "setting": "[4]; 10 nmol/kg i.v.", "value": "86.0 ± 3.3", "unit": "% control"}, {"measurement": "Change in heart rate", "setting": "[4]; 10 nmol/kg i.v.", "value": "103.5 ± 0.9", "unit": "% control"}, {"measurement": "Change in diastolic blood pressure", "setting": "[4]; 30 nmol/kg i.v.", "value": "80.2 ± 3.2", "unit": "% control"}, {"measurement": "Change in heart rate", "setting": "[4]; 30 nmol/kg i.v.", "value": "106.2 ± 2.0", "unit": "% control"}, {"measurement": "Change in diastolic blood pressure", "setting": "[4]; 100 nmol/kg i.v.", "value": "55.0 ± 2.8", "unit": "% control"}, {"measurement": "Change in heart rate", "setting": "[4]; 100 nmol/kg i.v.", "value": "107.1 ± 3.6", "unit": "% control"}, {"measurement": "Change in diastolic blood pressure", "setting": "[4]; 300 nmol/kg i.v.", "value": "54.6 ± 1.9", "unit": "% control"}, {"measurement": "Change in heart rate", "setting": "[4]; 300 nmol/kg i.v.", "value": "106.7 ± 3.1", "unit": "% control"}, {"measurement": "Change in diastolic blood pressure", "setting": "[4]; 1000 nmol/kg i.v.", "value": "46.7 ± 1.6", "unit": "% control"}, {"measurement": "Change in heart rate", "setting": "[4]; 1000 nmol/kg i.v.", "value": "104.0 ± 1.8", "unit": "% control"}, {"measurement": "Change in diastolic blood pressure", "setting": "[4]; 3000 nmol/kg i.v.", "value": "46.6 ± 1.6", "unit": "% control"}, {"measurement": "Change in heart rate", "setting": "[4]; 3000 nmol/kg i.v.", "value": "102.2 ± 2.2", "unit": "% control"}, {"measurement": "Change in diastolic blood pressure", "setting": "[4]; 10000 nmol/kg i.v.", "value": "32.4 ± 2.0", "unit": "% control"}, {"measurement": "Change in heart rate", "setting": "[4]; 10000 nmol/kg i.v.", "value": "99.9 ± 3.4", "unit": "% control"}]}]}
